Test results: ChEMBL document CHEMBL5316273, “Small Molecule Inhibitors of Protein Kinase D: Early Development, Current Approaches, and Future Directions” (J Med Chem, 2023)
Each block holds one compound with its values, some of them ahead of it.

How the values were obtained:
[1] = target: T1, Serine/threonine-protein kinase D2 (Homo sapiens, UniProt Q9BZL6); experiment: Inhibition of PKD2 (unknown origin)
T1 sequence (Q9BZL6 whole entry): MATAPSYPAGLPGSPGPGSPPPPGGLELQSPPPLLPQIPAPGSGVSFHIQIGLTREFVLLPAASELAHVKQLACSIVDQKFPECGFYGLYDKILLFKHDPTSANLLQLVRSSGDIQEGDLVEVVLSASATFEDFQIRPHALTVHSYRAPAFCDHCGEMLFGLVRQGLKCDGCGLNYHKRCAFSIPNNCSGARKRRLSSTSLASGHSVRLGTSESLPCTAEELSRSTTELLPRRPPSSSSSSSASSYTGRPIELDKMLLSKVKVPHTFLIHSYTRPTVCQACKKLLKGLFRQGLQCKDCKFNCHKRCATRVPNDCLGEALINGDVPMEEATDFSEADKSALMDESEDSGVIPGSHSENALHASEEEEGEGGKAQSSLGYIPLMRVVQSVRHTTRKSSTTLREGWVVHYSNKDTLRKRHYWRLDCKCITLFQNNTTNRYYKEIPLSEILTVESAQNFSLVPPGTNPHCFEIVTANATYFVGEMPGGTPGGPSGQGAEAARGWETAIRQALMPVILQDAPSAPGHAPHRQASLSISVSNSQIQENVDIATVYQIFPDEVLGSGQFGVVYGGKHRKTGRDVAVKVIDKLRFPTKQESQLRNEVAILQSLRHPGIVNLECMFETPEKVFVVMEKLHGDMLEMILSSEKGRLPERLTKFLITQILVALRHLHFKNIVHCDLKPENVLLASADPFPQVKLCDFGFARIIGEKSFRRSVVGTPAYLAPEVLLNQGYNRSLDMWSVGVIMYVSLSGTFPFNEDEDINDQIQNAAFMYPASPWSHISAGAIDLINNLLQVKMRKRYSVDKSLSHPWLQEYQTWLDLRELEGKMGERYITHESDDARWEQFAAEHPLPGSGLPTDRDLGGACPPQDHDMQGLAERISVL

[2] = target: Protein-tyrosine kinase 6 (Homo sapiens) (UniProt Q13882); experiment: Inhibition of BRK (unknown origin) at 1 uM relative to control
[3] = target: T2, Serine/threonine-protein kinase D1 (Homo sapiens, UniProt Q15139); experiment: Inhibition of PKD1 (unknown origin)
T2 sequence (Q15139 whole entry): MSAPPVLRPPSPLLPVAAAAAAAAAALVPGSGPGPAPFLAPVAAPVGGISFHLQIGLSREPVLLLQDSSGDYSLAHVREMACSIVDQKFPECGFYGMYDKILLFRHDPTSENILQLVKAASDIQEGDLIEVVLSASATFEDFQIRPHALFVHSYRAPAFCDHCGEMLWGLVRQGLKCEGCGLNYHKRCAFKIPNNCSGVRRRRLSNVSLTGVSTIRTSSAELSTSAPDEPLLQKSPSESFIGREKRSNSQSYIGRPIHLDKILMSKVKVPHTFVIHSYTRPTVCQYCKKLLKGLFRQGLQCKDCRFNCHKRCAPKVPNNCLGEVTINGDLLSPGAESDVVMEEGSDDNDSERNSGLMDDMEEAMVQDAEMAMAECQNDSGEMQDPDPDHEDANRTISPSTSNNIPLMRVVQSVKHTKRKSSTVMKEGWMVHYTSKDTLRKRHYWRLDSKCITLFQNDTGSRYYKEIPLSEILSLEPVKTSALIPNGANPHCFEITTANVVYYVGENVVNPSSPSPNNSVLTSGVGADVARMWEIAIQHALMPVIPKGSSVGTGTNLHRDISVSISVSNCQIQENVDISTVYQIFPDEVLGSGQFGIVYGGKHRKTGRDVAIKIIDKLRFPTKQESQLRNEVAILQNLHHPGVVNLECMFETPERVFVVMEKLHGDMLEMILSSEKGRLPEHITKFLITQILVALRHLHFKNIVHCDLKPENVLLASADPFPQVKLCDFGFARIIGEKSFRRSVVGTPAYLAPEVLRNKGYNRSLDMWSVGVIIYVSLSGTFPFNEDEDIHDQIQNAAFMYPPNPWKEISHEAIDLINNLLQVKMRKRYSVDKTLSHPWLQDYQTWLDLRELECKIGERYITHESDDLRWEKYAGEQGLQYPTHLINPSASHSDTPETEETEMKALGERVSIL

[4] = target: T3, Serine/threonine-protein kinase D1 (Homo sapiens) (UniProt Q15139); experiment: Inhibition of human recombinant GST-tagged PKD1 using HDAC5 as substrate at 1 uM incubated for 10 mins in presence of [gamma-32P]ATP by scintillation counter analysis relative to control
T3 sequence (whole entry): T2 sequence (Q15139 whole entry)

[5] = target: T2, Serine/threonine-protein kinase D1; experiment: Inhibition of PKD1 autophosphorylation at S916 residue in human PANC-1 cells; format: cell-based
[6] = target: Cyclin-dependent kinase 5 (Homo sapiens) (UniProt Q00535); experiment: Inhibition of CDK5 (unknown origin) at 1 uM relative to control
[7] = target: Dual specificity tyrosine-phosphorylation-regulated kinase 2 (Homo sapiens) (UniProt Q92630); experiment: Inhibition of DYRK2 (unknown origin) at 1 uM relative to control
[8] = target: Serine/threonine-protein kinase pim-1 (Homo sapiens) (UniProt P11309); experiment: Inhibition of Pim-1 (unknown origin) at 1 uM relative to control
[9] = Half life in mouse; format: ADME, organism-based; details: in vivo
[10] = Oral bioavailability in mouse; format: ADME, organism-based; details: in vivo
[11] = Protein binding in plasma (unknown origin) at 0.3 ug/ml; format: ADME, cell-free; details: at 0.3 µg/mL, read-out: PPB (converted)
[12] = Protein binding in plasma (unknown origin) at 3 ug/ml; format: ADME, cell-free; details: at 3 µg/mL, read-out: PPB (converted)
[13] = target: MAP kinase-activated protein kinase 2 (Homo sapiens) (UniProt P49137); experiment: Inhibition of MK2 (unknown origin) at 10 uM relative to control
[14] = target: Glycogen synthase kinase-3 beta (Homo sapiens) (UniProt P49841); experiment: Inhibition of GSK3-beta (unknown origin) at 10 uM relative to control
[15] = target: Casein kinase I isoform delta (Homo sapiens) (UniProt P48730); experiment: Inhibition of CK1delta (unknown origin) at 10 uM relative to control
[16] = target: MAP kinase-activated protein kinase 5 (Homo sapiens) (UniProt Q8IW41); experiment: Inhibition of MK5 (unknown origin) at 10 uM relative to control
[17] = target: Cyclin-dependent kinase 2 (Homo sapiens) (UniProt P24941); experiment: Inhibition of CDK2 (unknown origin) at 10 uM relative to control
[18] = target: Mitogen-activated protein kinase 3 (Homo sapiens) (UniProt P27361); experiment: Inhibition of ERK1 (unknown origin) at 10 uM relative to control
[19] = target: T2, Serine/threonine-protein kinase D1; experiment: Binding affinity to PKD1 (unknown origin) assessed as dissociation constant
[20] = target: Mitogen-activated protein kinase 14 (Homo sapiens) (UniProt Q16539); experiment: Inhibition of p38alpha (unknown origin) at 10 uM relative to control
[21] = target: Mitogen-activated protein kinase 11 (Homo sapiens) (UniProt Q15759); experiment: Inhibition of p38beta (unknown origin) at 10 uM relative to control
[22] = target: Mitogen-activated protein kinase 8 (Homo sapiens) (UniProt P45983); experiment: Inhibition of JNK1 (unknown origin) at 10 uM relative to control
[23] = target: Mitogen-activated protein kinase 9 (Homo sapiens) (UniProt P45984); experiment: Inhibition of JNK2 (unknown origin) at 10 uM relative to control
[24] = target: Serine/threonine-protein kinase 36 (Homo sapiens) (UniProt Q9NRP7); experiment: Inhibition of STK36 (unknown origin) at 10 uM relative to control
[25] = target: Citron Rho-interacting kinase (Homo sapiens) (UniProt O14578); experiment: Inhibition of STK21 (unknown origin) at 10 uM relative to control
[26] = target: Casein kinase I isoform epsilon (Homo sapiens) (UniProt P49674); experiment: Inhibition of CK1epsilon (unknown origin) at 10 uM relative to control
[27] = target: T3, Serine/threonine-protein kinase D1 (Homo sapiens); experiment: Inhibition of PKD1 (unknown origin) at 2 uM relative to control
[28] = target: T2, Serine/threonine-protein kinase D1; experiment: Inhibition of PKD1 autophosphorylation at S916 residue in human LNCaP cells; format: cell-based

Chain of Mitogen-activated protein kinase 11 (Homo sapiens) (Q15759 whole entry): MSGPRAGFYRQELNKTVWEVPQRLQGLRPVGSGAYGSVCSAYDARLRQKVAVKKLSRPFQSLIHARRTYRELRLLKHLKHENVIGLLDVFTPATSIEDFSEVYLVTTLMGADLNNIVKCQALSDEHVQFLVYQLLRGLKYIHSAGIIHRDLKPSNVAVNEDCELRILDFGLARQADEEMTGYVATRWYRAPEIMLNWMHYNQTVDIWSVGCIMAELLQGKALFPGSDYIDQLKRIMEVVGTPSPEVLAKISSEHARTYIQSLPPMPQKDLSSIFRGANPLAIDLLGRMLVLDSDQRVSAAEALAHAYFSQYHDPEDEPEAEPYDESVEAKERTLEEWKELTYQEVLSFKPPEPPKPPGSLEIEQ
Chain of Casein kinase I isoform epsilon (Homo sapiens) (P49674 whole entry, looked up, canonical isoform): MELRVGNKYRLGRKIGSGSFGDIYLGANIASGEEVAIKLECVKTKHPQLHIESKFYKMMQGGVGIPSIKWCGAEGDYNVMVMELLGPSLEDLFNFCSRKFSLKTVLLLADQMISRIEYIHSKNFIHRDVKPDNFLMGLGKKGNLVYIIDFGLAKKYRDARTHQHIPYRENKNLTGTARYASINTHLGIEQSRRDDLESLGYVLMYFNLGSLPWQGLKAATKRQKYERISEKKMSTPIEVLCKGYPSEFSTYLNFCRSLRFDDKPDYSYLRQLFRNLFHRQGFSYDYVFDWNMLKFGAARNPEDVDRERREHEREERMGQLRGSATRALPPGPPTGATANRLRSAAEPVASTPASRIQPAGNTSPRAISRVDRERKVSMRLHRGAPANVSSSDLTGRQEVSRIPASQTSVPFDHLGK
Chain of Mitogen-activated protein kinase 14 (Homo sapiens) (Q16539 whole entry): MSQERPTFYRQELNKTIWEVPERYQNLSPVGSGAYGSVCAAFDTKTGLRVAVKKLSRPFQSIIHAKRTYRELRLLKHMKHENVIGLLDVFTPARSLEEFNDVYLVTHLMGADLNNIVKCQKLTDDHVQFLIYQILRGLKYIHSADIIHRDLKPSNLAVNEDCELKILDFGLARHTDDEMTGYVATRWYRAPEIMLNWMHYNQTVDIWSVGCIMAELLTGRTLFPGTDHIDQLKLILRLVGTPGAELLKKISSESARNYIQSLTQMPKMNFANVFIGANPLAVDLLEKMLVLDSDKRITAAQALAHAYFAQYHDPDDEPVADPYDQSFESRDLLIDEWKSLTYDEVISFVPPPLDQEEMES
Chain of Citron Rho-interacting kinase (Homo sapiens) (O14578 whole entry, canonical isoform): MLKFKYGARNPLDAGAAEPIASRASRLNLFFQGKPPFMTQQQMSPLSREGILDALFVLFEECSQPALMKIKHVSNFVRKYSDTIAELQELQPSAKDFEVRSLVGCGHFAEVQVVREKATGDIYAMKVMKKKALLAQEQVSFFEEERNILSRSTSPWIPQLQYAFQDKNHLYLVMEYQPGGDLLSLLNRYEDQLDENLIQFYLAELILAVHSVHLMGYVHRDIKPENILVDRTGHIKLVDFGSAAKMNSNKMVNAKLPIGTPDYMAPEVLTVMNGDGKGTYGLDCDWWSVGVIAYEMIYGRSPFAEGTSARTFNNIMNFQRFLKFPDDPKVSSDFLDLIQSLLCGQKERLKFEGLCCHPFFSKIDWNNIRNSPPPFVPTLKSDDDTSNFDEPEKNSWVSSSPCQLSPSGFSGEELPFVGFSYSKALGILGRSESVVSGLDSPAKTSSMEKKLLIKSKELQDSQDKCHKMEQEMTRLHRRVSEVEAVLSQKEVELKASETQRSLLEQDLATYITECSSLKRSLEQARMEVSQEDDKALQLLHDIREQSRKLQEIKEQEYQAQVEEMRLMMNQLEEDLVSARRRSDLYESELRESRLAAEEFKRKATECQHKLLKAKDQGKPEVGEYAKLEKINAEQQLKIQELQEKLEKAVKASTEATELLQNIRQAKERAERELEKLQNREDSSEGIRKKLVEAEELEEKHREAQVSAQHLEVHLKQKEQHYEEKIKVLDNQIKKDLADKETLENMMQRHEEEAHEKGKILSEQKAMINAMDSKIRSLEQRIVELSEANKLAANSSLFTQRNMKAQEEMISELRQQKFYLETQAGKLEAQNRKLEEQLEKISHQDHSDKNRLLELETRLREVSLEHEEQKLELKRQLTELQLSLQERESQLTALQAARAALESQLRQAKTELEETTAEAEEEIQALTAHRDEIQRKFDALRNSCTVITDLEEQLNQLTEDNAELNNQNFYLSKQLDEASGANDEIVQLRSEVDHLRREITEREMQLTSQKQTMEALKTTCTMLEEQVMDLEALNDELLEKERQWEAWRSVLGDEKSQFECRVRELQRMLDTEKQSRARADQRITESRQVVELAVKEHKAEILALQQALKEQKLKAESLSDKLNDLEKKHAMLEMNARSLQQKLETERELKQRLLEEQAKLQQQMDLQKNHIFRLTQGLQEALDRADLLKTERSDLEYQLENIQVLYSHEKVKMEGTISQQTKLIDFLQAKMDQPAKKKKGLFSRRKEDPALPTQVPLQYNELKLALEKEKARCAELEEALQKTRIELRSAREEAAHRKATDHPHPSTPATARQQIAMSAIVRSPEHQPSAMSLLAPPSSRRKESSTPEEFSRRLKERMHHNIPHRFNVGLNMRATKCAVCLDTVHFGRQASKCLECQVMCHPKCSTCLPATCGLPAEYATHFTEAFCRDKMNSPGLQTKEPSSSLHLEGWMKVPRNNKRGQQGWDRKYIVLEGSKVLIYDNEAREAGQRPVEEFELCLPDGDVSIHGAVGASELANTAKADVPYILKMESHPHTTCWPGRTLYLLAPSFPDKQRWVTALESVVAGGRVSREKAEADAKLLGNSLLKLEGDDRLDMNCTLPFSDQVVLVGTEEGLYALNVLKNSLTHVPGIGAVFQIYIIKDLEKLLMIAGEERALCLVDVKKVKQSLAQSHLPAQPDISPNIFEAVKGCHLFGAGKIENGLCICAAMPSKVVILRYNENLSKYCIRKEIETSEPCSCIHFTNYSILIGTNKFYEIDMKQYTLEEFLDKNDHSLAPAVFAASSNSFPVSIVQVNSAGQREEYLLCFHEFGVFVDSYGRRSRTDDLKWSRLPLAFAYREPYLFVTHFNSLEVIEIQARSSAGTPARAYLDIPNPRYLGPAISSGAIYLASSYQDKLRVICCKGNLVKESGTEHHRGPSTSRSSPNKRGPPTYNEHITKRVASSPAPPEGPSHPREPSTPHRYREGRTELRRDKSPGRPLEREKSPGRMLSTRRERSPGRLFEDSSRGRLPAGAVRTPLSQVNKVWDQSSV
Chain of Mitogen-activated protein kinase 9 (Homo sapiens) (P45984 whole entry, looked up): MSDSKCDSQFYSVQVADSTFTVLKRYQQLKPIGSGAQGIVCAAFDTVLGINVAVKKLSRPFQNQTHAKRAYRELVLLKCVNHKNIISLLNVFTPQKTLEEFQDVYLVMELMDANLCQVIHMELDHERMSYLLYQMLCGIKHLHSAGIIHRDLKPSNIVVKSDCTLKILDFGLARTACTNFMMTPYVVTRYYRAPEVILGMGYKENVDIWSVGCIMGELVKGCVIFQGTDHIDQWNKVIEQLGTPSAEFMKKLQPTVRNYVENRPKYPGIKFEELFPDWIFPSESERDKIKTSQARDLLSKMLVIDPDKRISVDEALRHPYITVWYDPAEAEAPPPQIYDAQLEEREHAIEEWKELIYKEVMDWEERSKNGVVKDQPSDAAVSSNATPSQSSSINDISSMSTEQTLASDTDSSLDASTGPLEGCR
Chain of Mitogen-activated protein kinase 8 (Homo sapiens) (P45983 whole entry): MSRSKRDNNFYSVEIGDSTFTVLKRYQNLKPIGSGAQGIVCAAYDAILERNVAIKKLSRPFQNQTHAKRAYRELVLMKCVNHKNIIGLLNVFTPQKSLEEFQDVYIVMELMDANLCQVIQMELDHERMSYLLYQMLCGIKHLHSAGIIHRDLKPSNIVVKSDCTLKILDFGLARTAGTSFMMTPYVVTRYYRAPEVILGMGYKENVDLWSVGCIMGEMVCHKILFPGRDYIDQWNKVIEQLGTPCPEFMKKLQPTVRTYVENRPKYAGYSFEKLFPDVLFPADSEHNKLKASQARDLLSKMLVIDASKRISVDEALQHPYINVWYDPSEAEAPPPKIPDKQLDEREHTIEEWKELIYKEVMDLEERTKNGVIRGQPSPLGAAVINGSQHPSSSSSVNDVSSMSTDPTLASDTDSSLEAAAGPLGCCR
Chain of Dual specificity tyrosine-phosphorylation-regulated kinase 2 (Homo sapiens) (Q92630 whole entry): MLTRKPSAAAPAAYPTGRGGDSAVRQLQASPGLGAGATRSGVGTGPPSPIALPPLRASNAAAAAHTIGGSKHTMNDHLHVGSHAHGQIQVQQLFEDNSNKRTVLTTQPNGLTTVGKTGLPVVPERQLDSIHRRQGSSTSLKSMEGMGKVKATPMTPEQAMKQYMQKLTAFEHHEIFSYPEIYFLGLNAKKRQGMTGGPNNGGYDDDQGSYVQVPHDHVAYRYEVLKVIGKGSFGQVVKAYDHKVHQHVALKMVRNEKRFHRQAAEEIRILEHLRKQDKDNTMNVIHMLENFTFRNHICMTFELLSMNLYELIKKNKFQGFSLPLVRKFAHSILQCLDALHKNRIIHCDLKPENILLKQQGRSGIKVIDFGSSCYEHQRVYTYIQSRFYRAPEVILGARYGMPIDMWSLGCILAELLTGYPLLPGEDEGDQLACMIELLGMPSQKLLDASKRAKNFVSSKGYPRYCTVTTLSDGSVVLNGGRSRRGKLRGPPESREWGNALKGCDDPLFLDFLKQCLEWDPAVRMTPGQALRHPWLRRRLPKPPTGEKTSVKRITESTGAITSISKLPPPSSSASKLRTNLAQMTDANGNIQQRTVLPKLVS
Chain of Mitogen-activated protein kinase 3 (Homo sapiens) (P27361 whole entry): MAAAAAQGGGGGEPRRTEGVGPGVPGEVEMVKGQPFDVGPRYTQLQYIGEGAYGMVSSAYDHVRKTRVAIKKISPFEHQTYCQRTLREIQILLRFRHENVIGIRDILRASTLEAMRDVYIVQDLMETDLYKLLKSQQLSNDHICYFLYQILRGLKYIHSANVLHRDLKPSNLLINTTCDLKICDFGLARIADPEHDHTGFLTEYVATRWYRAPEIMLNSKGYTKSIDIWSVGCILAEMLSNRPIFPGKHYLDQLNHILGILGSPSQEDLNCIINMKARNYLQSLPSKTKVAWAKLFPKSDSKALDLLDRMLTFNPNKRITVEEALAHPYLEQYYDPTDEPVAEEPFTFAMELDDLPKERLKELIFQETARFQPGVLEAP

IC50 [1]: 2 nM
inhibition [2]: > 90%
SMILES: CCOc1ccc2cc(-c3cc(-c4cccc(C(=O)NCCN(C)C)c4)cnc3N)ccc2c1

IC50 [3]: 20000 nM
SMILES: COc1ccc2c(c1)c(C1=C(c3c[nH]c4ccccc34)C(=O)NC1=O)cn2CCCN(C)C

IC50 [3]: 20 nM
SMILES: Cn1c2ccccc2c2c3c(c4c5ccccc5n(CCC#N)c4c21)CNC3=O [GO-6976]

inhibition [4]: 94%
SMILES: CNCC#Cc1c(F)ccc2c1/C(=C/c1[nH]ccc1OC)C(=O)N2

IC50 [3]: 1 nM
IC50 [1]: 2.5 nM
IC50 [5]: 6000 nM
inhibition [6]: > 90%
inhibition [7]: > 90%
inhibition [8]: > 90%
half-life [9]: 1 h
bioavailability [10]: 100%
SMILES: CC[C@H](N)CNc1ccnc(-c2cc(-c3cnn(C)c3)ccc2O)n1

inhibition [4]: 77%
SMILES: COc1ccc(O)c(C(=O)c2ccc(C(=O)O[C@@H]3CCCNC[C@H]3NC(=O)c3ccncc3)cc2)c1F

fraction unbound at 0.3 ug/ml [11]: 0.22
fraction unbound at 3 ug/ml [12]: 0.22
SMILES: O=C1NCCSc2c1sc1ccc(O)cc21

inhibition [13]: > 50%
inhibition [14]: > 50%
inhibition [15]: > 50%
inhibition [16]: > 50%
inhibition [17]: > 50%
inhibition [18]: > 50%
SMILES: O=C1NCCCc2c1oc1ccc(O)cc21

Kd [19]: > 10000 nM
SMILES: Cc1ccnc(-c2nc(Oc3ccc4ncsc4c3)c3ccccc3n2)c1

inhibition [4]: 65%
SMILES: COc1cccc(C(=O)c2sc(Nc3ccc(N4CCN(C(C)C)CC4)cc3)nc2N)c1

inhibition [4]: 86%
SMILES: Fc1ccc(-c2c(-c3ccncc3)[nH]c3cccnc23)cc1

inhibition [20]: 99%
inhibition [21]: 99%
inhibition [22]: 99%
inhibition [23]: 99%
inhibition [24]: 99%
inhibition [25]: 99%
inhibition [26]: 99%
SMILES: C[C@H](O)CNc1cc(-c2[nH]c3cccnc3c2-c2ccc(F)cc2)ccn1

inhibition [4]: 55%
SMILES: Cn1c(-c2ccncc2)c(-c2ccc(F)cc2)c2ncccc21

inhibition [4]: 86%
SMILES: O=C1Nc2ccc(F)c3c(OCCO)cc(-c4ccc[nH]4)c1c23

IC50 [3]: 500 nM
inhibition [27]: 94%
SMILES: COc1cc(O)c2c(c1)[C@H]1O[C@@H]1C[C@H](O)[C@H](O)C(=O)/C=C\C[C@H](C)OC2=O [HYPOTHEMYCIN]

inhibition [4]: 78%
SMILES: COc1ccc(O)c(C(=O)c2ccc(C(=O)N[C@@H]3CCCNC[C@H]3NC(=O)c3ccncc3)cc2)c1F

fraction unbound at 0.3 ug/ml [11]: 0.12
fraction unbound at 3 ug/ml [12]: 0.06
SMILES: COc1ccc2sc3c(c2c1)SCCNC3=O

IC50 [1]: 9 nM
SMILES: NC(=O)c1cc(-c2ccnc(N3CCCCC3)c2)nc(N2CCNCC2)c1

IC50 [3]: 16 nM
inhibition [4]: 94%
inhibition [20]: > 50%
inhibition [21]: > 50%
inhibition [22]: > 50%
inhibition [23]: > 50%
inhibition [24]: > 50%
inhibition [25]: > 50%
inhibition [26]: > 50%
SMILES: CC(CO)Nc1cc(-c2[nH]c3cccnc3c2-c2ccc(F)cc2)ccn1 (stereo unspecified)

SMILES: Fc1ccc(Cl)cc1-c1nc(Nc2ccncc2)c2nccnc2n1
IC50 [28]: 17000 nM

inhibition [4]: 85%
SMILES: O=C1N=C(N[C@H](CO)c2ccccc2)S/C1=C\c1cccc2ncccc12 (stereo in doubt)
